Patent US5026703A, “Peptide oxytocin antagonists” (priority 1990, dated 1991)
Counter-ions that a name gives are not always drawn. *1 amine or outer side, *2 acyl side, *3 side chain or, on linkers, in order; H or OH if unused. Where a SMILES comes first, the peptide text is derived from it. [ ]: non-standard residue; d: D form. X14 = CCOC(=O)C(C(=O)OCC)C1C=NN([*:1])[C@H](C(=O)[*:2])C1; X6 = CN(C)C[C@H]1C=NN([*:1])[C@H](C(=O)[*:2])C1; X4 = CN(C)CCNC1C=NN([*:1])[C@H](C(=O)[*:2])C1; X8 = O=C([C@@H]1CC(N2CCCC2)C=NN1[*:1])[*:2]; X3 = C=C1C=NN([*:1])[C@H](C(=O)[*:2])C1; dPiz(1,6-dehydro) = O=C(O)[C@H]1CCC=NN1; dNMeF = CN[C@H](Cc1ccccc1)C(=O)O

What was measured:
AVP-V1 sites = AVP-V1 sites (Rattus norvegicus, UniProt P30560); assay: [3H]AVP radioligand binding to male rat liver crude membrane preparation (AVP-V1 sites); conditions: male rat liver membranes; 1 nM [3H]AVP; 30 min at 30° C.; read-out: Receptor Binding Results IC50 (nM) [^3 H]-AVP-V1
Experimental: (§1) Nonspecific binding (5-10% of the total binding) was determined using 10 μM unlabeled AVP, and the binding reaction was terminated by filtration as described above for the [^3 H]OT binding assay.
(§2) +Butlen, D; Guillon, G; Rajerison, RM; Jard, S; Sawyer, WH; Manning, M. 1978 Mol Pharmacol 14:1006.

uterine OT receptors = molecular target: T1, uterine OT receptors (Rattus norvegicus, UniProt P70536); assay: [3H]OT radioligand binding to uterine OT receptors, crude membrane preparation; conditions: uteri of DES-treated rats; 1 nM [3H]OT; 60 min, 22° C.; inhibits specific binding by 50%; read-out: Receptor Binding Results IC50 (nM) [3H]OT
T1 construct: from tissue; host or cells: uterus of DES-treated rats, crude membranes
T1 sequence (P70536 1-388): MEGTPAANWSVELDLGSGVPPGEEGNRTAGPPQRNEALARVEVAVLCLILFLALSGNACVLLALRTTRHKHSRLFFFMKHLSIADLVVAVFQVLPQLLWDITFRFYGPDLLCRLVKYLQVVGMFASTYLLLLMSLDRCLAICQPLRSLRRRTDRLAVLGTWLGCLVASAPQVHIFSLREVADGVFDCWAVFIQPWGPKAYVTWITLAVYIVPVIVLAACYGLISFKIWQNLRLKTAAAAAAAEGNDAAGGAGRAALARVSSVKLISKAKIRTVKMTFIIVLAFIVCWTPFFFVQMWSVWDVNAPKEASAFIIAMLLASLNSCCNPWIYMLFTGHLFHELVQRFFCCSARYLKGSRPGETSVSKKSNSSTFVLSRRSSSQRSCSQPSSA
Experimental: The high affinity binding of [^3 H]OT ([tyrosyl, 3,5-[^3 H]OT; 30-60 Ci/mmol; New England Nuclear Boston, Mass.) to uterine OT receptors was based on an assay* using a crude membrane preparation of uteri taken from diethylstilbestrol dipropionate (DES)-treated (0.3 mg/kg, ip; 18-24) rats. Competition studies were conducted at equilibrium (60 min; 22° C.) using 1 nM [^3 H]OT in the following assay buffer: 50 mM Tris-HCl, 5 mM MgCl2, and 0.1% BSA, pH 7.4. Nonspecific binding (10% of the total binding) was determined using 1 μM unlabeled OT and the binding reaction was terminated by filtration through glass fiber filters using a cell harvester (model 7019, Skatron, Inc., Sterling, Va.).
*Fuchs, A-R; Fuchs, F; Soloff, MS. 1985 J. Clin. Endocrinol. Metab. 60:37.

AVP-V2 sites = AVP-V2 sites (Rattus norvegicus, UniProt Q00788); assay: [3H]AVP radioligand binding to rat kidney medulla crude membrane preparation (AVP-V2 sites); conditions: rat kidney medulla membranes; 2 nM [3H]AVP; 30 min at 30° C.; read-out: Receptor Binding Results IC50 (nM) [^3 H]-AVP-V2
Experimental: as §1, §2

Sequence of AVP-V2 sites (Q00788 whole entry): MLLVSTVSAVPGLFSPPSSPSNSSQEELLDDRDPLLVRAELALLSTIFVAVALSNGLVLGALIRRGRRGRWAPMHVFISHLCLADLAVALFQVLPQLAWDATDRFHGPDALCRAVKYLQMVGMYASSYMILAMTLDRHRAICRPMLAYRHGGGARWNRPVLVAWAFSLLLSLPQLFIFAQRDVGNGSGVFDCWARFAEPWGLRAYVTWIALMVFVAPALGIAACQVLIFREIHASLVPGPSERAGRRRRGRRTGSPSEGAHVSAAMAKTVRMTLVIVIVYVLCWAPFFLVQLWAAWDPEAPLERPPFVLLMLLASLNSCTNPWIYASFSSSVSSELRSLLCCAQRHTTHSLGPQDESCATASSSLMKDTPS
Sequence of AVP-V1 sites (P30560 whole entry): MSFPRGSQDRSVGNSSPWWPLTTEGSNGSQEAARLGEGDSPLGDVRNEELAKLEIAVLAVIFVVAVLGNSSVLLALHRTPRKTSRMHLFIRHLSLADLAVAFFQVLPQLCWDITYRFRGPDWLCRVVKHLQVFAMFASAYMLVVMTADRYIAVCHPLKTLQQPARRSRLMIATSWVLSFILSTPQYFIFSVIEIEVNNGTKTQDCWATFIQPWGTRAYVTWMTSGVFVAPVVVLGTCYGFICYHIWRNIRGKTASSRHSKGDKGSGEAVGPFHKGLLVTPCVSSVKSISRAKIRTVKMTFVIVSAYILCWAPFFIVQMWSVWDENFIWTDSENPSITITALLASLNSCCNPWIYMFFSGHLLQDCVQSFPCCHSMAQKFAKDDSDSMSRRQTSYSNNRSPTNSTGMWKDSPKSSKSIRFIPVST

CC[C@H](C)[C@@H]1NC(=O)[C@@H](Cc2ccccc2)NC(=O)[C@@H]2CCCN2C(=O)[C@@H](Cc2ccccc2)N(C)C(=O)[C@@H]2CC(N3CCCC3)C=NN2C(=O)[C@H]2CCC=NN2C1=O (stereo partly drawn) [Example 15, cyclo-[D-Phenylalanyl-L-isoleucyl-D-2,3,4,5-tetrahydro-3-pyridazinecarbonyl-5-(1-pyrolidinyl)-L-2,3,4,5-tetrahydro-3-pyridazinecarbonyl-N-methyl-D-phenylalanyl-L-prolyl] trifluoroacetate] (cyclo(I[dPiz(1,6-dehydro)][X8][dNMeF]P[dF]))
IC50 (AVP-V1 sites): 8800 nM | IC50 (uterine OT receptors): 600 nM | IC50 (AVP-V2 sites): 11000 nM

CC[C@H](C)[C@@H]1NC(=O)[C@@H](Cc2ccccc2)NC(=O)[C@@H]2CCCN2C(=O)[C@@H](Cc2ccccc2)N(C)C(=O)[C@@H]2CC(NCCN(C)C)C=NN2C(=O)[C@H]2CCC=NN2C1=O (stereo partly drawn) [Example 16, cyclo-[D-Phenylalanyl-L-isoleucyl-D-2,3,4,5-tetrahydro-3-pyridazinecarbonyl-5-((2-dimethylamino)ethylamino)-L-2,3,4,5,-tetrahydro-3-pyridazinecarbonyl-N-methyl-D-phenylalanyl-L-prolyl] (trifluoroacetate) (High Rf isomer)] (cyclo(I[dPiz(1,6-dehydro)][X4][dNMeF]P[dF]))
IC50 (AVP-V1 sites): 930 nM | IC50 (uterine OT receptors): 220 nM | IC50 (AVP-V2 sites): 7300 nM

CCOC(=O)C(C(=O)OCC)C1C=NN2C(=O)[C@H]3CCC=NN3C(=O)[C@H]([C@@H](C)CC)NC(=O)[C@@H](Cc3ccccc3)NC(=O)[C@@H]3CCCN3C(=O)[C@@H](Cc3ccccc3)N(C)C(=O)[C@@H]2C1 (stereo partly drawn) [Example 17, cyclo-[D-Phenylalanyl-L-isoleucyl-D-2,3,4,5-tetrahydro-3-pyridazinecarbonyl-5-(2-ethoxy-1-(ethoxycarbonyl)-2-oxoethyl)-L-2,3,4,5,-tetrahydro-3-pyridazinecarbonyl-N-methyl-D-phenylalanyl-L-prolyl] (trifluoroacetate)] (cyclo(I[dPiz(1,6-dehydro)][X14][dNMeF]P[dF]))
IC50 (AVP-V1 sites): 3000 nM | IC50 (uterine OT receptors): 200 nM | IC50 (AVP-V2 sites): 2400 nM

CC[C@H](C)[C@@H]1NC(=O)[C@@H](Cc2ccccc2)NC(=O)[C@@H]2CCCN2C(=O)[C@@H](Cc2ccccc2)N(C)C(=O)[C@@H]2C[C@@H](CN(C)C)C=NN2C(=O)[C@H]2CCC=NN2C1=O [Example 18, cyclo-[D-Phenylalanyl-L-isoleucyl-D-2,3,4,5-tetrahydro-3-pyridazinecarbonyl-trans-5-(dimethylamino)methyl-L-2,3,4,5,-tetrahydro-3-pyridazinecarbonyl-N-methyl-D-phenylalanyl-L-prolyl] monoacetate] (cyclo(I[dPiz(1,6-dehydro)][X6][dNMeF]P[dF]))
IC50 (AVP-V1 sites): 1850 nM | IC50 (uterine OT receptors): 7.8 nM | IC50 (AVP-V2 sites): 2800 nM

C=C1C=NN2C(=O)[C@H]3CCC=NN3C(=O)[C@H]([C@@H](C)CC)NC(=S)[C@@H](Cc3ccccc3)NC(=O)[C@@H]3CCCN3C(=O)[C@@H](Cc3ccccc3)N(C)C(=O)[C@@H]2C1 [Example 19, cyclo-[D-Thiophenylalanyl-L-isoleucyl-D-2,3,4,5-tetrahydro-3-pyridazinecarbonyl-5-methylene-L-2,3,4,5-tetrahydro-3-pyridazinecarbonyl-N-methyl-D-phenylalanyl-L-prolyl]]
IC50 (AVP-V1 sites): > 1000 nM | IC50 (uterine OT receptors): 3.6 nM | IC50 (AVP-V2 sites): > 1000 nM

C=C1C=NN2C(=O)[C@H]3CCC=NN3C(=O)[C@H]([C@@H](C)CC)NC(=O)[C@@H](Cc3ccccc3)NC(=O)[C@@H]3CCCN3C(=O)[C@@H](Cc3ccccc3)N(C)C(=O)[C@@H]2C1 [Example 20, cyclo-[D-Phenylalanyl-L-isoleucyl-D-2,3,4,5-tetrahydro-3-pyridazinecarbonyl-5-methylene-L-2,3,4,5,-tetrahydro-3-pyridazinecarbonyl-N-methyl-D-phenylalanyl-L-prolyl]] (cyclo(I[dPiz(1,6-dehydro)][X3][dNMeF]P[dF]))
IC50 (AVP-V1 sites): > 10000 nM | IC50 (uterine OT receptors): 37 nM | IC50 (AVP-V2 sites): > 10000 nM
